Data as given in US20230234967A1, “Fused Azole Heterocycles as AHR Antagonists” (Senda Biosciences, Inc., priority 2021, published 2023).
pIC50: −log10 of the molar value.

target: T1, AHR (Homo sapiens, UniProt P35869); assay: DRE-Luciferase Reporter Assay (HepG2 AhR-Lucia reporter cells); type: cell-based; settings: AHR activating ligand at its EC50, luciferase read-out, read-out: HEPG2 Luc IC50
T1 construct: other cell line with a DRE-luciferase reporter stably transfected; endogenous in cells; host or cells: Human HepG2 liver carcinoma AhR-Lucia reporter cells
T1 sequence (P35869 11-848): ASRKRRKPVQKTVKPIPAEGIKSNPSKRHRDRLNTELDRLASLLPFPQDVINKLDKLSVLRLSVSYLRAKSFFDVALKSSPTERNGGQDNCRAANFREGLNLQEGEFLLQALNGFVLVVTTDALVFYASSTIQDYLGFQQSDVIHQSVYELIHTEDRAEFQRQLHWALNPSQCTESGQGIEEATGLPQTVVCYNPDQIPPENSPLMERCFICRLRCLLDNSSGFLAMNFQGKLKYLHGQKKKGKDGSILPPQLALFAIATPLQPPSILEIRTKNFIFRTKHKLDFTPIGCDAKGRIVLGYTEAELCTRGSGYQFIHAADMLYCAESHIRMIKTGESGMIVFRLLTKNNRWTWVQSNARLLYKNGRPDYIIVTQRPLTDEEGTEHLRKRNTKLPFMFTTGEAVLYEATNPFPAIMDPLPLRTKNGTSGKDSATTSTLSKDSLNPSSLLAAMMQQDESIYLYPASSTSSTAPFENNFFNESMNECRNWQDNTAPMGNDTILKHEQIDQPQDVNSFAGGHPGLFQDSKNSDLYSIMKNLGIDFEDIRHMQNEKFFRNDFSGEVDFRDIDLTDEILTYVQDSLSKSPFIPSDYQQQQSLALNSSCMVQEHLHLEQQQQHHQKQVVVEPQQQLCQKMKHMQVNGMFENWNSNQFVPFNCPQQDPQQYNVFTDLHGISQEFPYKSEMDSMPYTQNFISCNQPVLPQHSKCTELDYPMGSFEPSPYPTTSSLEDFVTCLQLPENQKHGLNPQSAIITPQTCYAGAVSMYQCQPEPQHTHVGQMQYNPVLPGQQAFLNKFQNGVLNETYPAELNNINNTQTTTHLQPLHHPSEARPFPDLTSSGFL
From the text: Example 27: DRE-Luciferase Reporter Assay
AHR binds to Dioxin Responsive Elements (DRE) upstream of genes that it activates. One measure of AHR activity is activation of a reporter gene, such as luciferase, downstream of one or multiple DRE elements. Luciferase activity will reflect activation and inhibition of AHR in the cells expressing his reporter. 20000 Human HepG2 liver carcinoma—AhR-Lucia reporter cells or Human HT29 colon adenocarcinoma—AhR reporter cells or other cell line with a DRE-luciferase reporter stably transfected were plated in Eagle's Minimal Essential Medium, 10% heat-inactivated FBS, 1×non-essential amino acids Pen-Strep (10,000 U/mL) and Normocin (100 ug/mL) in plates (96-well, 384-well or other plates) and incubated overnight at 37° C. in a CO2 incubator and treated with and without AhR antagonists at a log dilution starting at 100 uM.
After 1 hr that cells were plated an AHR activating ligand, such as TCDD, kynurenine, ITE (2-(1H-indole-3-ylcarbonyl)-4-thiazolecarboxylic methyl ester), VAF347, BNF (beta-naphthoflavone), FICZ (6-formylindolo(3,2-b) carbazole) or other AHR ligands at their specific EC50 concentration, were added to the cells with or without AHR antagonist.
Cells were incubated for 24 or 48 hours or another time point and then, supernatant was analyzed for determination of luciferase activity as a read-out of the AHR activation or inhibition. Luciferase was measured with the commercial kit QUANTI-Luc™ assay solution kit from Invivogen following the manufacturer's instructions.
The level of luciferase with only agonist ligand added was the maximum signal while the luciferase with […] was the minimum signal. IC50 values were determined as the concentration which inhibits half of the luciferase activity. “A” indicates an IC50 value less than 100 nM, “B” indicates an IC50 between 100 and 500 nM, “C” indicates an IC50 above 500 nM.

Row | SMILES | pIC50
1 | Cc1ccccc1-c1ccc2sc(NC(=O)c3ccnn3C)nc2n1 [Product 41, 1-methyl-N-(5-(o-tolyl)thiazolo[4,5-b]pyridin-2-yl)-1H-pyrazole-5-carboxamide] | < 6.30
2 | CN(C)C(=O)c1cccc(-c2ccc3nc(NC(=O)c4ccnn4C)sc3n2)c1 [Product 17, N-(5-(3-(dimethylcarbamoyl)phenyl)thiazolo[5,4-b]pyridin-2-yl)-1-methyl-1H-pyrazole-5-carboxamide] | < 6.30
3 | CC(=O)N(C)c1ccccc1-c1ccc2nc(NC(=O)c3ccnn3C)sc2n1 [Product 36, 1-methyl-N-(5-(2-(N-methylacetamido)phenyl)thiazolo[5,4-b]pyridin-2-yl)-1H-pyrazole-5-carboxamide] | < 6.30
4 | COc1ccccc1-c1ccc2nc(NC(=O)c3ccncc3)sc2n1 [Product 14, N-(5-(2-methoxyphenyl)thiazolo[5,4-b]pyridin-2-yl)isonicotinamide] | > 7.00
5 | Cc1ccccc1-c1cc2sc(NC(=O)c3ccnn3C)nc2cn1 [Product 42, 1-methyl-N-(6-(o-tolyl)thiazolo[4,5-c]pyridin-2-yl)-1H-pyrazole-5-carboxamide] | < 6.30
6 | Cn1ncnc1C(=O)Nc1nc2ccc(-c3cc(F)ccc3C(F)F)nc2s1 [Product 11, N-(5-(2-(difluoromethyl)-5-fluorophenyl)thiazolo[5,4-b]pyridin-2-yl)-1-methyl-1H-1,2,4-triazole-5-carboxamide] | < 6.30
7 | COc1ccccc1-c1ccc2nc(NC(=O)c3ncnn3C)sc2n1 [Product 4, N-(5-(2-methoxyphenyl)thiazolo[5,4-b]pyridin-2-yl)-1-methyl-1H-1,2,4-triazole-5-carboxamide] | 6.30 to 7.00
8 | Cc1nc(C)c(-c2ccc3nc(NC(=O)c4ccnn4C)sc3n2)s1 [Product 33, N-(5-(2,4-dimethylthiazol-5-yl)thiazolo[5,4-b]pyridin-2-yl)-1-methyl-1H-pyrazole-5-carboxamide] | 6.30 to 7.00
9 | Cc1ccccc1-c1cc2ncc(NC(=O)c3ccnn3C)nc2[nH]1 [Product 50, 1-methyl-N-(6-(o-tolyl)-5H-pyrrolo[2,3-b]pyrazin-3-yl)-1H-pyrazole-5-carboxamide] | < 6.30
10 | COc1ccccc1-c1ccc2nc(NC(=O)c3cccnc3)sc2n1 [Product 13, N-(5-(2-methoxyphenyl)thiazolo[5,4-b]pyridin-2-yl)nicotinamide] | 6.30 to 7.00
11 | CN(CCO)c1ccccc1-c1ccc2nc(NC(=O)c3ccnn3C)sc2n1 [Product 37, N-(5-(2-((2-hydroxyethyl)(methyl)amino)phenyl)thiazolo[5,4-b]pyridin-2-yl)-1-methyl-1H-pyrazole-5-carboxamide] | 6.30 to 7.00
12 | Cc1nc(-c2ccc3nc(NC(=O)c4ccnn4C)sc3n2)sc1C [Product 29, N-(5-(4,5-dimethylthiazol-2-yl)thiazolo[5,4-b]pyridin-2-yl)-1-methyl-1H-pyrazole-5-carboxamide] | 6.30 to 7.00
13 | CC(C)C(=O)Nc1ccccc1-c1ccc2nc(NC(=O)c3ccnn3C)sc2n1 [Product 34, N-(5-(2-isobutyramidophenyl)thiazolo[5,4-b]pyridin-2-yl)-1-methyl-1H-pyrazole-5-carboxamide] | < 6.30
14 | COc1cccc(-c2ccc3nc(NC(=O)c4ccnn4C)sc3n2)c1 [Product 16, N-(5-(3-methoxyphenyl)thiazolo[5,4-b]pyridin-2-yl)-1-methyl-1H-pyrazole-5-carboxamide] | 6.30 to 7.00
15 | Cn1nccc1C(=O)Nc1cnc2cc(-c3ccccc3C(F)(F)F)[nH]c2c1 [Product 44, 1-methyl-N-(2-(2-(trifluoromethyl)phenyl)-1H-pyrrolo[3,2-b]pyridin-6-yl)-1H-pyrazole-5-carboxamide] | 6.30 to 7.00
16 | Cn1nccc1C(=O)Nc1nc2ccc(-c3cccnc3)nc2s1 [Product 26, 1-Methyl-N-(5-(pyridin-3-yl)thiazolo[5,4-b]pyridin-2-yl)-1H-pyrazole-5-carboxamide] | 6.30 to 7.00
17 | Cc1ncsc1-c1ccc2nc(NC(=O)c3ccnn3C)sc2n1 [Product 31, 1-Methyl-N-(5-(4-methylthiazol-5-yl)thiazolo[5,4-b]pyridin-2-yl)-1H-pyrazole-5-carboxamide] | 6.30 to 7.00

Now from value to molecule:

Row | pIC50 | SMILES
18 | > 7.00 | CN(C)c1ccc(-c2ccc3nc(NC(=O)c4ccnn4C)sc3n2)cc1 [Product 20, N-(5-(4-(dimethylamino)phenyl)thiazolo[5,4-b]pyridin-2-yl)-1-methyl-1H-pyrazole-5-carboxamide]
19 | < 6.30 | Cn1nccc1C(=O)Nc1nc2ccc(-c3ccccc3N3CCCC3)nc2s1 [Product 21, 1-Methyl-N-(5-(2-(pyrrolidin-1-yl)phenyl)thiazolo[5,4-b]pyridin-2-yl)-1H-pyrazole-5-carboxamide]
20 | > 7.00 | Cn1ncnc1C(=O)Nc1cnc2cc(-c3ccccc3C(F)(F)F)[nH]c2c1 [Product 45]
21 | < 6.30 | CC(=O)Nc1nc2ccc(-c3ccccc3N(C)C)nc2s1 [Product 23, N-(5-(2-(dimethylamino)phenyl)thiazolo[5,4-b]pyridin-2-yl)acetamide]
22 | < 6.30 | Cc1ccccc1-c1ccc2nc(NC(=O)N3CCN(C)CC3)sc2n1 [Product 40, 4-methyl-N-(5-(o-tolyl)thiazolo[5,4-b]pyridin-2-yl)piperazine-1-carboxamide]
23 | 6.30 to 7.00 | Cc1ccccc1-c1cc2cnc(NC(=O)c3ccnn3C)nc2[nH]1 [Product 48]
24 | < 6.30 | Cn1nccc1C(=O)Nc1nc2ccc(-c3nccs3)nc2s1 [Product 28, 1-Methyl-N-(5-(thiazol-2-yl)thiazolo[5,4-b]pyridin-2-yl)-1H-pyrazole-5-carboxamide]
25 | 6.30 to 7.00 | Cn1cc(-c2ccc3nc(NC(=O)c4ccnn4C)sc3n2)cn1 [Product 22, 1-Methyl-N-(5-(1-methyl-1H-pyrazol-4-yl)thiazolo[5,4-b]pyridin-2-yl)-1H-pyrazole-5-carboxamide]
26 | < 6.30 | Cn1nccc1C(=O)Nc1nc2ccc(-c3cc(F)ccc3C(F)F)nc2s1 [Product 5, N-(5-(2-(difluoromethyl)-5-fluorophenyl)thiazolo[5,4-b]pyridin-2-yl)-1-methyl-1H-pyrazole-5-carboxamide]
27 | 6.30 to 7.00 | Cn1nccc1C(=O)Nc1nc2ccc(-c3ccccc3C(F)F)nc2s1 [Product 3, N-(5-(2-(difluoromethyl)phenyl)thiazolo[5,4-b]pyridin-2-yl)-1-methyl-1H-pyrazole-5-carboxamide]
28 | 6.30 to 7.00 | Cc1ccccc1-c1cc2ncc(NC(=O)c3ncnn3C)cc2[nH]1 [Product 46]
29 | < 6.30 | Cc1csc(-c2ccc3nc(NC(=O)c4ccnn4C)sc3n2)n1 [Product 32, 1-Methyl-N-(5-(4-methylthiazol-2-yl)thiazolo[5,4-b]pyridin-2-yl)-1H-pyrazole-5-carboxamide]
30 | < 6.30 | CN(C)c1cccc(-c2ccc3nc(NC(=O)c4ccnn4C)sc3n2)c1 [Product 19, N-(5-(3-(dimethylamino)phenyl)thiazolo[5,4-b]pyridin-2-yl)-1-methyl-1H-pyrazole-5-carboxamide]
31 | 6.30 to 7.00 | Cc1cnc(-c2ccc3nc(NC(=O)c4ccnn4C)sc3n2)s1 [Product 30, 1-Methyl-N-(5-(5-methylthiazol-2-yl)thiazolo[5,4-b]pyridin-2-yl)-1H-pyrazole-5-carboxamide]
32 | < 6.30 | Cn1ncnc1C(=O)Nc1nc2ccc(-c3ccccc3C(F)(F)F)nc2s1 [Product 6, 1-Methyl-N-(5-(2-(trifluoromethyl)phenyl)thiazolo[5,4-b]pyridin-2-yl)-1H-1,2,4-triazole-5-carboxamide]
